Data taken from article PMC7762994 (Viruses, 2020).

Columns and labels:
HSPA8 = molecular target: T1, HSPA8 (Homo sapiens, UniProt P11142); experiment: 2D-TPP in U87 cells; format: binding; settings: 1.5 h, destabilized, read-out: pEC50 of protein destabilization, HSPA8 (converted)
T1 construct: endogenous in cells; host or cells: U87 cells

[1] = molecular target: T2, host proteins (proteome-wide) (Homo sapiens, UniProt A0FGR8); experiment: 2D-TPP in U87 cells (proteome-wide); format: binding
T2 sequence (A0FGR8 1-921): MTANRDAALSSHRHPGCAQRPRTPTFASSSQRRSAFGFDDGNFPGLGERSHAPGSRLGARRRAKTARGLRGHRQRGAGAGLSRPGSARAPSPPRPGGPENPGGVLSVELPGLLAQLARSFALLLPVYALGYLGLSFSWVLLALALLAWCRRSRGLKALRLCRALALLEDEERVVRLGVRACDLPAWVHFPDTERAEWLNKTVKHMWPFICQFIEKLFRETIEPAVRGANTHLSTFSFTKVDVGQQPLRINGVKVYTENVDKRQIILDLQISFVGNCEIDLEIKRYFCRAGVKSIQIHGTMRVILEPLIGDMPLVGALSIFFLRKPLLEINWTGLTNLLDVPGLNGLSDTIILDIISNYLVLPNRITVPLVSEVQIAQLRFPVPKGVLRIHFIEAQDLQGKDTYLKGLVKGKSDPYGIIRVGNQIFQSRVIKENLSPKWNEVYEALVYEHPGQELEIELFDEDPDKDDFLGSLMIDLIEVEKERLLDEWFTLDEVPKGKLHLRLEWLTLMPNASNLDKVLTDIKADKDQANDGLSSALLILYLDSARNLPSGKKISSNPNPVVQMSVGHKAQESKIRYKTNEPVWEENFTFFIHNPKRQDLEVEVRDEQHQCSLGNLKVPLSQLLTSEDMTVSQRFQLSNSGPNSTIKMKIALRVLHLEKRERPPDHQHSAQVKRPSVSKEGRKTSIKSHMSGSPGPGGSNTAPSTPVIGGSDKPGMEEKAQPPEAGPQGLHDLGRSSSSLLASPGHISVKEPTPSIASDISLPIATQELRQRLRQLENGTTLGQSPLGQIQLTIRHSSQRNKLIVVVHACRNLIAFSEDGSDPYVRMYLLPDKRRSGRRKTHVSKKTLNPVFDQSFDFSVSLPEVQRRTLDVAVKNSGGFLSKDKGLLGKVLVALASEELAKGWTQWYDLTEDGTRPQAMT

[2] = system: host proteins (proteome-wide); experiment: 2D-TPP in U87 cells (proteome-wide); format: binding, Homo sapiens; settings: protein A0A087WUL8 (NBPF19¦NBPF26¦NBPF1¦NBPF20¦NBPF8¦NBPF12¦NBPF14)
[3] = molecular target: T3, host proteins (proteome-wide) (Homo sapiens, UniProt A0AVT1); experiment: 2D-TPP in U87 cells (proteome-wide); format: binding; settings: protein A0AVT1 (UBA6)
T3 construct: endogenous in cells; host or cells: U87 cells
T3 sequence (A0AVT1 1-1052): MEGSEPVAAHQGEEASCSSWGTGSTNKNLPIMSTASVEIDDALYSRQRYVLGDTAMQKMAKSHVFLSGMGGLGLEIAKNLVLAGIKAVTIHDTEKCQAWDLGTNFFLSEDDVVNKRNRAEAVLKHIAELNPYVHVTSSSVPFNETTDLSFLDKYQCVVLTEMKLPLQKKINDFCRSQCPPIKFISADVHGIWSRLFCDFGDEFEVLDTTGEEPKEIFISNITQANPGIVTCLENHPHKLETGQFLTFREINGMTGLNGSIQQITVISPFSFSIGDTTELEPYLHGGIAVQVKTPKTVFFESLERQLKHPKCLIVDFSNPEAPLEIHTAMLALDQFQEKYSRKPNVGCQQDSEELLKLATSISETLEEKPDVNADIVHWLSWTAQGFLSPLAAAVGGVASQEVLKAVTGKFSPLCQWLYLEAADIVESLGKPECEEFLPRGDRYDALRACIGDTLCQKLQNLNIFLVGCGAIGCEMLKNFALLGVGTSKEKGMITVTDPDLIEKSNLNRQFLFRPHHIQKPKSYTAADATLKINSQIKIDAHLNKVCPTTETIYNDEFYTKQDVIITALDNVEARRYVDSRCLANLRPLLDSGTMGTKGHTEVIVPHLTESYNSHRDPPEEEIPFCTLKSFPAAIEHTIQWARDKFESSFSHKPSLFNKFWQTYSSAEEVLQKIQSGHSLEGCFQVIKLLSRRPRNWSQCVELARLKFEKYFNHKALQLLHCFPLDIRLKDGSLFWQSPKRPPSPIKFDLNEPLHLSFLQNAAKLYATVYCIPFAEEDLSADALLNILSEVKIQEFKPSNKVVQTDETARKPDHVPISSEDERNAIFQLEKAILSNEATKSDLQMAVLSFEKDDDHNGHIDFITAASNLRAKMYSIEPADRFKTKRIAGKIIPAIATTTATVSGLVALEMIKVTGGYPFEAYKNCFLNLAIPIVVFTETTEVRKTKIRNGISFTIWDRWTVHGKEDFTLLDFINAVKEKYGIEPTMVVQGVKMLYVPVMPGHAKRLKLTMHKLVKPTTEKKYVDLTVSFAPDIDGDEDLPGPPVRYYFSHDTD

T1 sequence (P11142 whole entry): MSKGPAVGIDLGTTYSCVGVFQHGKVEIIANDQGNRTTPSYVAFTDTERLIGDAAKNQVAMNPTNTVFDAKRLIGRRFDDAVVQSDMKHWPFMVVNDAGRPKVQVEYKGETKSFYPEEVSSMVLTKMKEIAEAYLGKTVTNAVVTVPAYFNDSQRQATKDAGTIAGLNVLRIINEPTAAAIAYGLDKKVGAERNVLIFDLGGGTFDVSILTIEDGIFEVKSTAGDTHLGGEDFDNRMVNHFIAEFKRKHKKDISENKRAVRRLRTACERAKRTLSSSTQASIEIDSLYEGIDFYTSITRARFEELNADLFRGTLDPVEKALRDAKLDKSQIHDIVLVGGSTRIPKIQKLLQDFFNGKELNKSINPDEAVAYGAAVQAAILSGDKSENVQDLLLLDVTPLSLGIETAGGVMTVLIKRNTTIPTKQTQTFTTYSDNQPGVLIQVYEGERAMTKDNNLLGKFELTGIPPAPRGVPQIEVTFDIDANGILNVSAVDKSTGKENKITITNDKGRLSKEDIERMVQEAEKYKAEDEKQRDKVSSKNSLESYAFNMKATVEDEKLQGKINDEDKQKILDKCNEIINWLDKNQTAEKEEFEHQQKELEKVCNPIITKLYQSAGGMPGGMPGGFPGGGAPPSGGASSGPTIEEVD

CCOC(=O)c1cnn(-c2cccc3c2[nH]c(=O)n3C2CCN(C(=O)Nc3ccc(I)cc3)CC2)c1 [TH6744, ethyl 1-(1-(1-((4-iodophenyl)carbamoyl)piperidin-4-yl)-2-oxo-2,3-dihydro-1H-benzo[d]imidazol-4-yl)-1H-pyrazole-4-carboxylate]
EC50 (HSPA8): 5010 nM | pec50 ([1]; protein A0FGR8 (ESYT2), temperature 54, Set2): 5.517 | norm_rel_fc_protein_1_unmodified ([1]; protein A0FGR8 (ESYT2), temperature 54, dose 1, Set2): 0.9139 | norm_rel_fc_protein_3_unmodified ([1]; protein A0FGR8 (ESYT2), temperature 54, dose 3, Set2): 0.7618 | norm_rel_fc_protein_10_unmodified ([1]; protein A0FGR8 (ESYT2), temperature 54, dose 10, Set2): 0.587 | norm_rel_fc_protein_30_unmodified ([1]; protein A0FGR8 (ESYT2), temperature 54, dose 30, Set2): 0.5111 | pec50 ([1]; protein A0FGR8 (ESYT2), temperature 57, Set2): 5.71 | norm_rel_fc_protein_1_unmodified ([1]; protein A0FGR8 (ESYT2), temperature 57, dose 1, Set2): 0.8819 | norm_rel_fc_protein_3_unmodified ([1]; protein A0FGR8 (ESYT2), temperature 57, dose 3, Set2): 0.7127 | norm_rel_fc_protein_10_unmodified ([1]; protein A0FGR8 (ESYT2), temperature 57, dose 10, Set2): 0.531 | norm_rel_fc_protein_30_unmodified ([1]; protein A0FGR8 (ESYT2), temperature 57, dose 30, Set2): 0.5493 | pec50 ([1]; protein A0FGR8-2 (ESYT2), temperature 54, Set2): 5.517 | norm_rel_fc_protein_1_unmodified ([1]; protein A0FGR8-2 (ESYT2), temperature 54, dose 1, Set2): 0.9139 | norm_rel_fc_protein_3_unmodified ([1]; protein A0FGR8-2 (ESYT2), temperature 54, dose 3, Set2): 0.7618 | norm_rel_fc_protein_10_unmodified ([1]; protein A0FGR8-2 (ESYT2), temperature 54, dose 10, Set2): 0.587 | norm_rel_fc_protein_30_unmodified ([1]; protein A0FGR8-2 (ESYT2), temperature 54, dose 30, Set2): 0.5111 | pec50 ([2]; temperature 45, Set1): 5.615 | norm_rel_fc_protein_1_unmodified ([2]; temperature 45, dose 1, Set1): 0.9697 | norm_rel_fc_protein_3_unmodified ([2]; temperature 45, dose 3, Set1): 0.761 | norm_rel_fc_protein_10_unmodified ([2]; temperature 45, dose 10, Set1): 0.63 | norm_rel_fc_protein_30_unmodified ([2]; temperature 45, dose 30, Set1): 0.6272 | EC50 ([3]; temperature 51, Set2): 890 nM | norm_rel_fc_protein_1_unmodified ([3]; temperature 51, dose 1, Set2): 1.349 | norm_rel_fc_protein_3_unmodified ([3]; temperature 51, dose 3, Set2): 1.572 | norm_rel_fc_protein_10_unmodified ([3]; temperature 51, dose 10, Set2): 1.5768 | norm_rel_fc_protein_30_unmodified ([3]; temperature 51, dose 30, Set2): 1.557
